# Reference: article PMC6030159 (Scientific Reports, 2018)
# pIC50, pKd: −log10 of the molar value. Entries after “also recorded” stand apart in the source; their conditions may differ.
# What was measured:
# [1] = tested on: MYC-family protein levels; design: method as in PMID 28976731, PMID 24859015, PMID 23733953; settings: cited from earlier work
# [2] = tested on: MYCN-amplified neuroblastoma cells (IMR-32, Kelly, SK-N-DZ); test: Resazurin growth assay, MYCN-amplified neuroblastoma cell lines; assay type: cell-based, human; settings: MYCMI-6 6.25 μM, MYCMI-11 and MYCMI-14 25 μM, 10058-F4 64 μM, 48 hours
# Text: HEK293A, MCF7, MDA-MB231, SK-N-F1, SK-N-RA, SK-N-AS, COS-7, HeLa, BJ cells, and Rat1 fibroblasts TGR-1 (wt), HO15.19 (MYC knockout) and HOmyc3 (MYC reconstituted HO15.19) were maintained in DMEM. The neuroblastoma cell lines Kelly, IMR-32 and SK-N-DZ, and the Burkitt’s lymphoma cell lines Mutu, Daudi and ST486 were kept in RPMI. SK-N-BE(2) cells were maintained in a 1:1 mixture of EMEM and F12 media, supplemented with 1% non-essential amino acid solution (NEAA) and 0.5% Glutamine. U2OS-MYC-ER cell lines were cultured in phenol-red free DMEM and treated with 100 nM 4-hydroxytamoxifen (HOT) (Sigma-Aldrich) to activate MYC-ER. IMR-90 was maintained in MEM. All media were supplemented with 10% FBS and 1% penicillin and streptomycin and kept at 37 °C and 5% CO2. All cell lines were mycoplasma free. Cell proliferation assays were performed as described in Supplementary Information. […]
# Cell proliferation assays. Cell growth and viability was estimated in triplicates with WST-1
# (Roche) or Resazurin sodium salt (Sigma-Aldrich) assays in medium at 37°C and 5% CO 2 for
# 2 hours after which absorbance or fluorescence, respectively, was measured with an Omega
# Fluostar (BMG Labtech) in a 96 well plate format. […]
# [3] = molecular target: MYC; design: method as in PMID 24859015; settings: read-out: KD for MYC by SPR; cited from earlier work
# [4] = tested on: tumor cell growth in vivo; settings: cited from earlier work
# [5] = tested on: MAX:MAX:DNA; design: method as in PMID 28976731, PMID 25114221; settings: fluorescence polarization; read-out: IC50, MAX:MAX:DNA interaction; cited from earlier work
# [6] = tested on: MAX; design: method as in PMID 25114221; settings: cited from earlier work
# [7] = tested on: recombinant MYC:MAX:DNA; design: method as in PMID 28976731, PMID 25114221; settings: fluorescence polarization; read-out: IC50, MYC:MAX:DNA interaction; cited from earlier work
# [8] = molecular target: T1, MYC bHLHZip (Homo sapiens, UniProt P01106); test: SPR direct binding to immobilized MYC; settings: up to 8 μM
# T1 construct: 6xHis (N); made in house; host or cells: E. coli BL21 (DE3), pET28a; purified in denaturing conditions
# Protocol: Further, MYCMI-6 binding to MAX, MXD1 (MAD1) (Figs 4C and S5C and D), p53 (Fig. 4D), BSA (Suppl. Fig. S5E) and YFP (data not shown) were negligible. Binding to BCL-XL was only 10% of the theoretical maximum at 2 μM MYCMI-6 (Suppl. Fig. S5F).
# The MYC SPR assay was carried out as described above with MYCbHLHZip immobilized to a level of 800–1000 RU. For kinetic binding experiments, a Langmuir 1:1 binding event was applied using the Biacore T200 Evaluation Software 2.0 (GE Healthcare) to determine association (ka) and dissociation (kd) constants of the compound and to calculate affinity (KD) by the formula; KD = kd/ka. Binding responses from equilibrium binding experiments were plotted against compound concentration and KD values were determined at 50% of the theoretical Rmax with the formula Rmax = (MW analyte/MW ligand) × immobilized ligand level on the chip (RU) × stoichiometry (1:1). Same coupling method described above was used to immobilize the control proteins. MAX was immobilized to approximately 2000 RU, MAD to 600 RU, BSA to 1000 RU, p53 to 3000 RU and BCL-XL, to 500 RU.
# [9] = molecular target: T2, MYCbHLHZip:MAXbHLHZip (Homo sapiens, UniProt P01106); test: SPR MYC:MAX heterodimer formation assay; assay type: binding; settings: KJ-Pyr-9 up to 10 μM
# T2 construct: 6xHis (N); made in house; host or cells: E. coli BL21 (DE3), pET28a
# Protocol: The SPR method is a highly sensitive assay to determine the affinity between protein and ligand and to measure the kinetics of the interaction. In the SPR MYC:MAX interaction assay, MAXbHLHZip was covalently attached onto a sensor chip and MYCbHLHZip pre-mixed with compound was injected over the surface and thereafter allowed to dissociate.
# The SPR experiments were performed at 25 °C using a Biacore T200 (GE Healthcare) instrument kindly provided by SciLifeLab Solna. An amino coupling procedure was used to immobilize protein on a CM5 sensor chip (GE Healthcare). Sensorgrams were generated by subtraction of the reference (blank immobilized) surface. All details will be described in Castell et al. (manuscript in preparation). In general, for the MYC:MAX interaction assay, 200–500 RU of MAXbHLHZip was immobilized and 100 nM MYCbHLHZip pre-incubated with compound in PBS supplemented with 0.05% Tween-20 and 1% DMSO was injected with a flow rate of 30 µl/min and allowed to dissociate. MAX was regenerated by injection of PBS buffer supplemented with Urea.
# [10] = tested on: T3, MYC:MAX; test: Gaussia luciferase complementation (GLuc) MYC:MAX; assay type: cell-based, human; settings: 25 μM, 17 hours, HEK293 cells
# T3 construct: fused to full length MYC (MYC-GLuc-C) and MAX (MAX-GLuc-N), respectively; expressed in transfected cells; host or cells: HEK293
# Protocol: The protein fragment complementation assay using the Gaussia luciferase has been described. 0.2–0.4 μg of each GLuc-construct (see Supplementary Information) together with 0.05–0.2 μg pCMV-Luc (Firefly luciferase) were transiently transfected into HEK293 or COS-7 cells in 6-well plates. 24 hours later cells were treated with compound (10–25 μM) or DMSO. After another 17 hours, the cells were harvested and lyzed in passive lysis buffer (Promega) supplemented with complete protease inhibitor (Roche). After 60 min incubation at room temperature 20 μM D-luciferin was added (substrate of Firefly luciferase) and luminescence was measured in a Lumat LB9501 (Berthold) or OmegaFluostar (BMG Labtech) luminometer. Directly after, Gaussia luciferase substrate Coelenterazine (Promega) was added to a final concentration of 20 μM in a mixture with “Stop n’ Glow” (Promega) and the luciferase activity was measured. The ratio between Gaussia and Firefly luciferase values were calculated and normalized to DMSO-treated control cells.
# [11] = tested on: endogenous MYC protein; test: Western blot of endogenous MYC in HeLa cells; assay type: cell-based; settings: 10 μM, 24 hours
# Protocol: These assays were performed essentially as described in[67],[68]. For further information on immunohistochemistry, and on primers and antibodies, see Supplementary Information.
# T2 sequence (P01106 367-447 limits assumed): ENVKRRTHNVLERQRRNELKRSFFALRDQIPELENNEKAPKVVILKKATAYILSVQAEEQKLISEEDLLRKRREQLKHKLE
# T1 sequence (P01106 367-447 limits assumed): as above
structure (smiles),measurement,setting,value
CCc1ccc(/C=C2/SC(=S)NC2=O)cc1 [10058-F4],effect on MYC-family protein levels,[1],down-regulate
same,growth of MYCN-amplified versus MYCN-non-amplified neuroblastoma cell lines,[2],reduced growth of the MYCN-amplified cell lines significantly stronger than the MYCN-non-amplified cell lines
same,pKd,[3],~4.40
same,"tumor cell growth in vivo, mouse tumor models",[4],Inhibition of tumor cell growth in vivo
O=[N+]([O-])c1ccc(Nc2ccccc2-c2ccccc2)c2nonc12 [10074-G5],effect on MYC-family protein levels,[1],down-regulate
same,pKd,[3],~4.49
NC(=O)c1ccc(-c2cc(-c3ccc([N+](=O)[O-])cc3)nc(-c3ccco3)c2)cc1 [KJ-Pyr-9],pIC50,[5],~4.52
same,"binding to MAX, BSI",[6],not MAX
same,pIC50,[7],~5.00
same,"binding to immobilized MYC (SPR), in words",[8],not detect any binding
same,"effect on MYC:MAX formation (SPR), in words",[9],no effect; also recorded: not affect the MYC:MAX interaction
same,"tumor cell growth in vivo, mouse tumor models",[4],Inhibition of tumor cell growth in vivo
CCN(CC)CC[n+]1ccc2c(C)c3[nH]c4ccccc4c3c(C)c2c1 [MYCMI-7],MYC:MAX GLuc activity,[10],most potent
same,effect on endogenous MYC protein levels (western blot),[11],reduced MYC protein expression
